Assay: solvent given as SMILES

CC12C=CC(C1)C(C)(C)C2 (configuration not stated)
Conditions | solvation free energy, 298 K [kcal/mol]
in O | 0.64

C=C
Conditions | solvation free energy, 298 K [kcal/mol]
in Brc1ccccc1 | -0.52
in C1CCC2CCCCC2C1 | -0.46
in C1CCOC1 | -0.82
in C1COCCO1 | -0.58
in CC1CO1 | -0.89
in CC1COC(=O)O1 | -0.17
in CC#N | -0.62
in CC(=O)N(C)C | -0.45
in CC(C)(C)O | -0.49
in CC(C)=O | -0.76
in CC(C)CO | -0.46
in CC(C)O | -0.45
in CCC(C)O | -0.44
in CCCCC | -0.69
in CCCCCC | -0.64
in CCCCCCC | -0.62
in CCCCCCCC | -0.6
in CCCCCCCCC | -0.6
in CCCCCCCCCC | -0.57
in CCCCCCCCCCCCCCCC | -0.39
in CCCCCCCCO | -0.37
in CCCCCCCO | -0.43
in CCCCCCO | -0.43
in CCCCCO | -0.48
in CCCCO | -0.46
in CCCO | -0.52
in CCO | -0.56
in CCOCC | -0.97
in CN1CCCC1 | -0.32
in CN1CCCC1=O | -0.4
in CN(C)C=O | -0.45
in CN(C)P(=O)(N(C)C)N(C)C | -0.52
in CNC=O | -0.2
in CO | -0.51
in COC(C)=O | -0.75
in COCCOCCOCCOC | -0.25
in CS(C)=O | -0.05
in Cc1cccc(C)c1 | -0.61
in ClC(Cl)(Cl)Cl | -0.78
in ClCCCl | -0.49
in Clc1ccccc1 | -0.61
in N#Cc1ccccc1 | -0.45
in Nc1ccccc1 | -0.15
in O | 1.28
in O=C1CCCC1 | -0.6
in O=C1CCCCC1 | -0.55
in OCCCOCCCO | 0.06
in OCCO | 0.5
in OCc1ccccc1 | -0.23
in c1ccccc1 | -0.66

CCC=CCC
Conditions | solvation free energy, 298 K [kcal/mol]
in C=CCCCCCCCCCCCCCC | -3.51
in O | 1.62

O=C(O)CCCCCCCCC(=O)O
Conditions | solvation free energy, 298 K [kcal/mol]
in CCC(C)O | -17
in CCCCCCO | -16.7
in CCCCCO | -16.9
in CCCCO | -17.1
in CCCO | -17.2

CCC(=O)CC
Conditions | solvation free energy, 298 K [kcal/mol]
in CC(C)CCCC(C)CCCC(C)CCCCC(C)CCCC(C)CCCC(C)C | -3.73
in CCCCCCC | -4.04
in CCCCCCCCC=CCCCCCCCC(=O)OCC(COC(=O)CCCCCCCC=CCCCCCCCC)OC(=O)CCCCCCCC=CCCCCCCCC | -4.31
in CCCCCCCCCCCCCCCC | -3.73
in CCCCCCCCO | -4.34
in CN1CCCC1=O | -4.76
in CO | -4.96
in O | -3.33
in O=CN1CCOCC1 | -4.45
in [2H]O[2H] | -3.27

C=CCCCCCCCC
Conditions | solvation free energy, 298 K [kcal/mol]
in CN(C)C=O | -5.12
in O | 2.24
in OCCOCCO | -3.32
in OCCOCCOCCO | -3.58
in OCCOCCOCCOCCO | -3.78

CC=O
Conditions | solvation free energy, 298 K [kcal/mol]
in CC(=O)N(C)C | -3.22
in CC(C)CCCC(C)CCCC(C)CCCCC(C)CCCC(C)CCCC(C)C | -2.26
in CCCCCCCCCCCCCCCC | -1.51
in CCCCCCCCO | -3.65
in CCCCN(C=O)CCCC | -2.78
in CCN1CCCC1=O | -3.05
in CCN(CC)C(C)=O | -3.06
in CCNC(C)=O | -2.73
in CN1CCCCC1=O | -3.04
in CNC(C)=O | -2.85
in CO | -4.83
in O | -3.44

CCCOCCC
Conditions | solvation free energy, 298 K [kcal/mol]
in C=CCCCCCCCCCCCCCC | -4
in CC(C)(C)O | -4.13
in CC(C)CO | -4.17
in CC(C)O | -4.02
in CCC(C)=O | -4.37
in CCC(C)O | -4.15
in CCCCCCCCCCCCCCCC | -4.02
in CCCCCCCCO | -4.05
in CCCCCCO | -4.12
in CCCCCl | -4.68
in CCCCO | -4.13
in CN(C)C=O | -3.62
in CO | -3.94
in ClC(Cl)(Cl)Cl | -4.83
in ClCCl | -5.02
in O | -1.23
in [2H]O[2H] | -1.37

CC(=O)OC1CCC2(C)C(=CCC3C2CCC2(C)C(C(C)CCCC(C)C)CCC32)C1 (configuration not stated)
Conditions | solvation free energy, 298 K [kcal/mol]
in O | -5.48

c1ccsc1
Conditions | solvation free energy, 298 K [kcal/mol]
in CC(C)O | -3.75
in CCCCCCC | -4.09
in CCCO | -3.71
in CN1CCCC1=O | -4.68
in O | -1.39
in O=CN1CCOCC1 | -4.39
in c1ccccc1 | -4.65

CCCCOC(=O)c1ccccc1O
Conditions | solvation free energy, 298 K [kcal/mol]
in O | -3.51

O=C1NC(=O)C(c2ccccc2)(c2ccccc2)N1
Conditions | solvation free energy, 298 K [kcal/mol]
in O | -16.7

CCCCCC#N
Conditions | solvation free energy, 298 K [kcal/mol]
in CCCCCCCCCCCCCCCC | -4.68
in CCCCCCCCO | -5.54
in O | -3.28
in [2H]O[2H] | -3.25

CC(C)(C)C
Conditions | solvation free energy, 298 K [kcal/mol]
in C1COCCO1 | -2.16
in CC(C)=O | -2.22
in CCCCCC | -2.77
in CCO | -2.2
in CO | -1.91
in O | 2.66

Clc1cc(Cl)c(Cl)c(Cl)c1
Conditions | solvation free energy, 298 K [kcal/mol]
in CCCCCCCCO | -7.57
in O | -1.62

c1ccc2c(c1)Nc1ccccc1S2
Conditions | solvation free energy, 298 K [kcal/mol]
in C1CCOC1 | -14.7
in C1COCCO1 | -14.4
in CC(C)(C)O | -12.7
in CC(C)CC(C)(C)C | -10.9
in CC(C)CC(C)O | -12.6
in CC(C)CCO | -12.8
in CC(C)CO | -12.6
in CC(C)O | -12.8
in CC(C)OC(C)C | -12.8
in CCC(C)CO | -12.7
in CCC(C)O | -12.8
in CCCC(C)CO | -12.8
in CCCC(C)O | -12.8
in CCCCC(CC)CO | -12.7
in CCCCCC | -11.1
in CCCCCCC | -11.2
in CCCCCCCC | -11.2
in CCCCCCCCCC | -11.2
in CCCCCCCCCCO | -13
in CCCCCCCCO | -13.1
in CCCCCCCO | -13.1
in CCCCCCO | -13.1
in CCCCCO | -13.1
in CCCCO | -13.1
in CCCCOCCCC | -12.7
in CCCO | -13.1
in CCCOC(C)=O | -13.9
in CCO | -13.2
in CCOCC | -13.5
in CO | -13.1
in COC(C)(C)C | -13.4

ClC(Br)Br
Conditions | solvation free energy, 298 K [kcal/mol]
in CCCCCCCCO | -4.9

CC(C)C(C)(C)C
Conditions | solvation free energy, 298 K [kcal/mol]
in C=CCCCCCCCCCCCCCC | -3.77
in CN1CCCC1=O | -2.78
in O | 2.62

ClCCCl
Conditions | solvation free energy, 298 K [kcal/mol]
in Brc1cccc2ccccc12 | -4.18
in C1CCOC1 | -5.01
in C1COCCO1 | -4.98
in CC(=O)CC(C)C | -4.68
in CC(=O)N(C)C | -5.01
in CC(=O)OCc1ccccc1 | -4.59
in CC(C)OC(C)C | -3.88
in CCC(C)=O | -4.79
in CCCCCC | -3.75
in CCCCCCC | -3.7
in CCCCCCCC | -3.7
in CCCCCCCCCCCCCC | -3.49
in CCCCCCCCCCCCCCCC | -3.52
in CCCCCCCCN(CCCCCCCC)CCCCCCCC | -3.6
in CCCCCCCCO | -3.78
in CCCCCN(CCCCC)CCCCC | -3.76
in CCCCCl | -4.42
in CCCCN(C=O)CCCC | -4.62
in CCCCN(CCCC)CCCC | -3.65
in CCCCO | -3.98
in CCCCOCCCC | -4.16
in CCO | -4.03
in CCOC(C)=O | -4.72
in CCOCC | -4.45
in CNC(C)=O | -4.45
in COC(=O)OC | -4.73
in COC(C)(C)C | -4.35
in Cc1ccc(C)cc1 | -4.41
in Cc1cccc(C)c1 | -4.45
in Cc1ccccc1C | -4.42
in ClC(Cl)(Cl)Cl | -4.3
in ClC(Cl)Cl | -4.69
in O | -1.79
in [2H]O[2H] | -1.89
in c1ccc2ncccc2c1 | -4.54
in c1ccccc1 | -4.68

S=C=S
Conditions | solvation free energy, 298 K [kcal/mol]
in C1CCCC1 | -3.57
in C1COCCO1 | -3.03
in CC(C)=O | -3.07
in CC(C)CC(C)(C)C | -3.25
in CCC(C)=O | -3.1
in CCCCCCC | -3.33
in CCCCCCCC | -3.29
in CCCCCCCCO | -3.11
in CCCCCO | -3.31
in CCCCO | -3.08
in CCO | -3.1
in CCOC(C)=O | -3.12
in CN(C)C=O | -3
in Cc1ccc(C)cc1 | -3.55
in ClC(Cl)(Cl)Cl | -3.62
in ClC(Cl)=C(Cl)Cl | -3.52
in ClCCCl | -3.29
in N#Cc1ccccc1 | -3.18
in O | 0.16
in O=C1CCCCC1 | -3.31
in c1ccccc1 | -3.6

C=CC1(C)CCC(=C(C)C)CC1C(=C)C (configuration not stated)
Conditions | solvation free energy, 298 K [kcal/mol]
in O | -0.35

CCC(C)CCCC(C)CCCC(C)CCCC(C)C (configuration not stated)
Conditions | solvation free energy, 298 K [kcal/mol]
in O | 4.83

CCNc1nc(NC(C)C(C)C)nc(SC)n1 (configuration not stated)
Conditions | solvation free energy, 298 K [kcal/mol]
in O | -8.73

CCCOC(=O)c1ccccc1O
Conditions | solvation free energy, 298 K [kcal/mol]
in O | -3.66

c1ccc2c(c1)OCCOCCOCCOCCOCCO2
Conditions | solvation free energy, 298 K [kcal/mol]
in O | -17.9

Clc1cc(-c2cc(Cl)c(Cl)c(Cl)c2Cl)cc(Cl)c1Cl
Conditions | solvation free energy, 298 K [kcal/mol]
in O | -3.17

O=c1cc(-c2ccc(O)c(O)c2)oc2cc(O)cc(O)c12
Conditions | solvation free energy, 298 K [kcal/mol]
in CC(C)O | -25.4
in CCCCO | -25.2
in CCCO | -25.5
in CCO | -25.5

c1ccoc1
Conditions | solvation free energy, 298 K [kcal/mol]
in CC(=O)N(C)C | -3.72
in CCCCN(C=O)CCCC | -3.27
in CNC(C)=O | -3.23
in O | -0.9

CCc1cccs1
Conditions | solvation free energy, 298 K [kcal/mol]
in O | -0.93

CCCCCCCCCC(C)C
Conditions | solvation free energy, 298 K [kcal/mol]
in O | 4.04
